Laboratory results: paper PMC7180638, “Synthesis of Pyrrolidine Monocyclic Analogues of Pochonicine and Its Stereoisomers: Pursuit of Simplified Structures and Potent β-N-Acetylhexosaminidase Inhibition” (Molecules, 2020)
Counter-ions that a name gives are not always drawn. Like-named read-outs stand apart in the source and are kept apart here.

How the values were obtained:
Type in all cases: biochemical
[1] = biological target: T1, α,α-Trehalase (Porcine kidney) (Sus scrofa, UniProt I3LIR5); test: α,α-Trehalase (porcine kidney) inhibition
T1 construct: purchased Sigma-Aldrich Chemical Co; host or cells: porcine kidney
T1 sequence (I3LIR5 24-583): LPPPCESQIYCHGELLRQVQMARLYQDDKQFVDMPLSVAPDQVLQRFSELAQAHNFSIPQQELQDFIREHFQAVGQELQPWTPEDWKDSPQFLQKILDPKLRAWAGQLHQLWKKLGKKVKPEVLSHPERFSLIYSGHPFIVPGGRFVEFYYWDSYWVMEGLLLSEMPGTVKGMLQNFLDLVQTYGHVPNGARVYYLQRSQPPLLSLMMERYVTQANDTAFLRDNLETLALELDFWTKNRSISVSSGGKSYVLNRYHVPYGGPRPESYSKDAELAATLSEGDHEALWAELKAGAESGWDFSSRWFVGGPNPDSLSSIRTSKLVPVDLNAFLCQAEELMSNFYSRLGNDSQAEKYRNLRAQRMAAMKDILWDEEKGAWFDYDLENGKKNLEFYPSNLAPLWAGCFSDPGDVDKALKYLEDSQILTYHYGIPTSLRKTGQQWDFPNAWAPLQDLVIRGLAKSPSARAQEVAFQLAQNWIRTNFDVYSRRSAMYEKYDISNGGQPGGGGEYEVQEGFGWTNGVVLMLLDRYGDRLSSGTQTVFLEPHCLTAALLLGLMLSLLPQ
Method: (§1) With rat intestinal maltase as an exception, other enzymes were purchased from Sigma-Aldrich Chemical Co. (St. Louis, MO, USA). Brush border membranes prepared from rat small intestine according to the method of Kessler et al. were assayed at pH 6.8 for rat intestinal maltase using maltose. The released D-glucose was determined colorimetrically using the Glucose CII-test Wako (Wako Pure Chemical Ind.; Osaka, Japan). Other glycosidase activities were determined using an appropriate p-nitrophenyl glycoside as substrate in a buffer solution at the optimal pH value of each enzyme. The reaction was stopped by adding 400 mM Na2CO3. The released p-nitrophenol was measured spectrometrically at 400 nm.

[2] = biological target: β-Glucosidase (Almond); test: β-Glucosidase (almond) inhibition
Method: as §1

[3] = biological target: β-Glucosidase (Bovine liver); test: β-Glucosidase (bovine liver) inhibition
Method: as §1

[4] = biological target: T2, α-Mannosidase (Jack bean) (Canavalia ensiformis, UniProt C0HJB3); test: α-Mannosidase (Jack bean) inhibition
T2 construct: purchased Sigma-Aldrich Chemical Co
T2 sequence (C0HJB3 1-981): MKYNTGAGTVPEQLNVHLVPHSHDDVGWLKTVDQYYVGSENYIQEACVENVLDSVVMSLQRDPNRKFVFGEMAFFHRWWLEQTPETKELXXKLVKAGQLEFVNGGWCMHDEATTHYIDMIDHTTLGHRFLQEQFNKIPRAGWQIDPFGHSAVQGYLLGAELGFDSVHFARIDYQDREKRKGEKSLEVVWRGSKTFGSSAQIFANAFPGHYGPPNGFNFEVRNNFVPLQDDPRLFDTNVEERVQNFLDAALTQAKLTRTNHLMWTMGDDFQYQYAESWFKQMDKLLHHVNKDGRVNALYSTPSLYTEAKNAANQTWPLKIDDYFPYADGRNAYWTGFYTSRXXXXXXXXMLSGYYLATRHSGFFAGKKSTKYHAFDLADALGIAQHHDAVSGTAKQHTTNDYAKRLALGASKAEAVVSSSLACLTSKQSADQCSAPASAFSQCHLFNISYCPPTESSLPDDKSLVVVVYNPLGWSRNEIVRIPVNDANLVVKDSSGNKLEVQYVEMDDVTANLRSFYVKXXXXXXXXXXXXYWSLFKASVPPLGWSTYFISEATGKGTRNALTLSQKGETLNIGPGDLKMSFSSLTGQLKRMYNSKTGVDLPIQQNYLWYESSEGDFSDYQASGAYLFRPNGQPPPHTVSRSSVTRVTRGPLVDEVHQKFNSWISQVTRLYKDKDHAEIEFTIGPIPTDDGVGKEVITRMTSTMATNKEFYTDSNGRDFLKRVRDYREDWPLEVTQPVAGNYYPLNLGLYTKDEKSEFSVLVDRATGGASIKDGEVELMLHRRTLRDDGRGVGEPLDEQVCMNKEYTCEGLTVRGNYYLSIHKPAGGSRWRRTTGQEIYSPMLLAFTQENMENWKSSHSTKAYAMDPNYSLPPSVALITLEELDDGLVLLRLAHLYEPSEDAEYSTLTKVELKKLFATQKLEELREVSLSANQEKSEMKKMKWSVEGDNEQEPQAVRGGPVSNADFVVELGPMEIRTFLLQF
Method: as §1

[5] = biological target: T3, α-N-Acetylgalactosaminidase (Chicken liver) (Gallus gallus, UniProt Q90744); test: α-N-Acetylgalactosaminidase (chicken liver) inhibition
T3 construct: purchased Sigma-Aldrich Chemical Co; host or cells: chicken liver
T3 sequence (Q90744 1-405): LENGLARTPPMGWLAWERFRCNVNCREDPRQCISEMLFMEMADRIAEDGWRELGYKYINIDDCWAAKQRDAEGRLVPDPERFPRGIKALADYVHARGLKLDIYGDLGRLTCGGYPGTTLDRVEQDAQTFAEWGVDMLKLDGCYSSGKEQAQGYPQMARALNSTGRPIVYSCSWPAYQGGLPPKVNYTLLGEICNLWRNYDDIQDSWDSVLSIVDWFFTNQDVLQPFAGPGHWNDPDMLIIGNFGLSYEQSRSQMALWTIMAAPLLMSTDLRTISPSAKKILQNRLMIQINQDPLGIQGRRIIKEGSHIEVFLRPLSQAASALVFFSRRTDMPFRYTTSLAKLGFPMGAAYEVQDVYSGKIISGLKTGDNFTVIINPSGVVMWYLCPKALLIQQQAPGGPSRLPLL
Method: as §1

[6] = biological target: β-Mannosidase (Snail); test: β-Mannosidase (snail) inhibition
Method: as §1

[7] = biological target: β-N-Acetylgalactosaminidase (HL60); test: β-N-Acetylgalactosaminidase (HL60) inhibition
Method: as §1

[8] = 1000 μM, read-out: Inhibition % at 1000 μM

| SMILES | inhibition at 1000 µM [1, 8] [%] | inhibition at 1000 µM ([1]; read-out: IC50) [%] | IC50 ([2]; read-out: IC50) [µM] | IC50 [3] | Inhibition % at 1000 μM [3] [%] | inhibition at 1000 µM [4, 8] [%] | inhibition at 1000 µM ([4]; read-out: IC50) [%] | inhibition at 1000 µM [5, 8] [%] | inhibition at 1000 µM ([5]; read-out: IC50) [%] | IC50 ([6]; read-out: IC50) [µM] | IC50 ([7]; read-out: IC50) [µM] | IC50 [2] | Inhibition % at 1000 μM [2] [%] | IC50 [6] | Inhibition % at 1000 μM [6] [%] | IC50 [7] | Inhibition % at 1000 μM [7] [%] | IC50 [4] [µM] | IC50 [5] [µM] |
| --- | --- | --- | --- | --- | --- | --- | --- | --- | --- | --- | --- | --- | --- | --- | --- | --- | --- | --- | --- |
| CC(=O)NC[C@H]1N[C@H](CO)[C@@H](O)[C@@H]1O [4·HCl, 1-N-acetylamino-2,5-imino-1,2,5-trideoxy-D-mannitol hydrochloride] | 20.3 | < 50 | 170 | NI (No Inhibition (less than 50% at 1000 μM)) | 33.8 | 0 | < 50 | 3.3 | < 50 | 296 | 9.5 |  |  |  |  |  |  |  |  |
| CC(=O)NC[C@@H]1N[C@@H](CO)[C@H](O)[C@H]1O [A-10, 1-N-acetylamino-2,5-imino-1,2,5-trideoxy-L-mannitol hydrochloride] | 4.3 | < 50 |  | NI (No Inhibition (less than 50% at 1000 μM)) | 2.0 | 0 | < 50 | 0 | < 50 |  |  | NI (No Inhibition (less than 50% at 1000 μM)) | 16.1 | NI (No Inhibition (less than 50% at 1000 μM)) | 0 | NI (No Inhibition (less than 50% at 1000 μM)) | 13.0 |  |  |
| CC(=O)NC[C@@H]1N[C@@H](CO)[C@@H](O)[C@H]1O [C-10, 1-N-acetylamino-2,5-imino-1,2,5-trideoxy-L-altritol hydrochloride] | 0 | < 50 |  | NI (No Inhibition (less than 50% at 1000 μM)) | 1.0 | 0.4 | < 50 | 6.1 | < 50 |  |  | NI (No Inhibition (less than 50% at 1000 μM)) | 0 | NI (No Inhibition (less than 50% at 1000 μM)) | 0 | NI (No Inhibition (less than 50% at 1000 μM)) | 1.4 |  |  |
| CC(=O)NC[C@H]1N[C@H](CO)[C@H](O)[C@@H]1O [D-10, 1-N-acetylamino-2,5-imino-1,2,5-trideoxy-D-altritol hydrochloride] | 0 | < 50 |  | NI (2.4%) (No Inhibition (less than 50% at 1000 μM)) |  |  |  |  |  |  | 8.8 | NI (No Inhibition (less than 50% at 1000 μM)) | 41.0 | NI (No Inhibition (less than 50% at 1000 μM)) | 0 |  |  | 205 | 65.3 |
| CC(=O)NC[C@H]1N[C@@H](CO)[C@@H](O)[C@@H]1O [E-10a, 1-N-acetylamino-2,5-imino-1,2,5-trideoxy-D-glucitol hydrochloride] | 5.6 | < 50 |  | NI (No Inhibition (less than 50% at 1000 μM)) | 4.1 | 0.7 | < 50 | 1.4 | < 50 |  | 490 | NI (No Inhibition (less than 50% at 1000 μM)) | 37.9 | NI (No Inhibition (less than 50% at 1000 μM)) | 25.8 |  |  |  |  |
| CC(=O)NC[C@@H]1N[C@@H](CO)[C@@H](O)[C@@H]1O [E-10b, 1-N-acetylamino-2,5-imino-1,2,5-trideoxy-L-iditol hydrochloride] | 0 | < 50 |  | NI (No Inhibition (less than 50% at 1000 μM)) | 0 | 3.8 | < 50 | 0.5 | < 50 |  |  | NI (No Inhibition (less than 50% at 1000 μM)) | 1.2 | NI (No Inhibition (less than 50% at 1000 μM)) | 0 | NI (No Inhibition (less than 50% at 1000 μM)) | 10.1 |  |  |
| CC(=O)NC[C@@H]1N[C@H](CO)[C@H](O)[C@H]1O [F-10a, 1-N-acetylamino-2,5-imino-1,2,5-trideoxy-L-glucitol hydrochloride] | 3 | < 50 |  | NI (No Inhibition (less than 50% at 1000 μM)) | 0.3 | 0 | < 50 | 0 | < 50 |  |  | NI (No Inhibition (less than 50% at 1000 μM)) | 11.6 | NI (No Inhibition (less than 50% at 1000 μM)) | 3.23 | NI (No Inhibition (less than 50% at 1000 μM)) | 0.9 |  |  |
| CC(=O)NC[C@H]1N[C@H](CO)[C@H](O)[C@H]1O [F-10b, 1-N-acetylamino-2,5-imino-1,2,5-trideoxy-D-iditol hydrochloride] | 0 | < 50 |  | NI (No Inhibition (less than 50% at 1000 μM)) | 0 | 1.6 | < 50 | 2.3 | < 50 |  |  | NI (No Inhibition (less than 50% at 1000 μM)) | 19.8 | NI (No Inhibition (less than 50% at 1000 μM)) | 0 | NI (No Inhibition (less than 50% at 1000 μM)) | 36.1 |  |  |
| CC(=O)NC[C@H]1N[C@@H](CO)[C@H](O)[C@@H]1O [G-10, 1-N-acetylamino-2,5-imino-1,2,5-trideoxy-D-allitol hydrochloride] | 5.6 | < 50 |  | NI (No Inhibition (less than 50% at 1000 μM)) | 0 | 4 | < 50 | 2.3 | < 50 |  |  | NI (No Inhibition (less than 50% at 1000 μM)) | 15.3 | NI (No Inhibition (less than 50% at 1000 μM)) | 0 | NI (No Inhibition (less than 50% at 1000 μM)) | 15.9 |  |  |
